In the supplement of paper PMC3974653:
Where a name gives a salt, the structure may show the parent alone.

Test system: MTT (mouse pheochromocytoma)
Experiment: IC50 of cell viability (ATP content)
Settings: (24 or 48 h)
Outline: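 Cells of the MTT mouse pheochromocytoma line, 5 µl per well at 200,000 cells/ml, were grown overnight at 37°C, 5% CO2 in white 1536-well plates with DMEM, 5% FBS and 1% horse serum. Pintool transfer then delivered 23 nl of library compound in DMSO, giving 8 final concentrations from 0.5 nM to 46 µM, for an exposure of 24 or 48 hrs. Luminescence from CellTiter-Glo was read after 15 minutes and referenced to positive-control wells (100%) and DMSO wells (0%). IC50 was calculated with a four-parameter logistic fit.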

Compound | IC50 of cell viability [µM]
O=C(N[C@@H]1N=C(c2ccccc2F)c2cccc3c2N(CC3)C1=O)c1cc2ccccc2[nH]1 [Pranazepide] | > 46
C[C@]12CC[C@H]3[C@@H](C\C=C/4C[C@@H](O)CC[C@]34C)[C@@H]1CCC2=O [Prasterona] | > 46
CC(=O)Oc1cc2c(s1)CCN(C(C(=O)C1CC1)c1ccccc1F)C2 (configuration not stated) [Prasugrel Hydrochloride] | > 46
COc1ccc(C(=O)c2c(C)n(CCN3CCOCC3)c3ccccc23)cc1 [Pravadoline maleate] | > 46
O=C(C1CCCCC1)N1CC(=O)N2CCc3ccccc3[C@@H]2C1 [Praziquantel] | > 46
COc1cc2nc(N3CCN(C(=O)c4ccco4)CC3)nc(N)c2cc1OC [Prazosin] | > 46
CCOC(=O)O[C@@]1(CC[C@@H]2[C@@H]3CC\C4=C\C(=O)\C=C/[C@@]4(C)[C@H]3[C@H](O)C[C@@]12C)C(=O)COC(=O)CC [Prednicarbate] | > 46
CC12C=CC(=O)C=C1CCC1C2C(O)CC2(C)C1CCC2(O)C(=O)COC(=O)CCC(=O)O (configuration not stated) [Prednisolone 21-hemisuccinate] | > 46
C[C@]12CC(=O)[C@H]3[C@@H](CC\C4=C\C(=O)\C=C/[C@]34C)[C@@H]1CC[C@]2(O)C(=O)CO [Prednisone] | > 46
CC(O)C1CCC2C3CCC4CC(O)CCC4(C)C3CCC12C (configuration not stated) [Pregnandiol] | > 46
CC(=O)[C@H]1CC[C@H]2C3CC=C4C[C@@H](O)CC[C@]4(C)C3CC[C@]12C (some centres not stated) [Pregnenolona] | > 46
C[C@@H](Cc1ccccc1)NCCC(c1ccccc1)c1ccccc1.C[C@H](O)C(=O)O [Prenylamine lactate] | > 46
CCCN[C@@H](C)C(=O)Nc1ccccc1C [Prilocaine hydrochloride] | > 46
COc1cc(N[C@@H](C)CCCN)c2ncccc2c1 [Primaquine diphosphate] | > 46
CCCN(CCC)[S+](=O)([O-])c1ccc(C(=O)O)cc1 [Probenecid] | > 46
CC(C)(Sc1cc(C(C)(C)C)c(O)c(C(C)(C)C)c1)Sc1cc(C(C)(C)C)c(O)c(C(C)(C)C)c1 [Probucol] | > 46
CCN(CC)CCOC(=O)c1ccc(N)cc1 [Procaine hydrochloride] | > 46
CNNCc1ccc(C(=O)NC(C)C)cc1 [Procarbazine hydrochloride] | > 46
CN1CCN(CCCN2c3ccccc3Sc3ccc(Cl)cc32)CC1 [Prochlorperazine dimaleate] | > 46
O[C@@](CCN1CCCC1)(c1ccccc1)C1CCCCC1 [Procyclidine hydrochloride] | > 46
CC(=O)C1CCC2C3CC\C4=C\C(=O)CCC4(C)C3CCC12C (configuration not stated) [Progestin] | > 46
CCCN(CCC)C(=O)C(CCC(=O)OCCCN1CCN(CCOC(=O)Cc2c(C)n(C(=O)c3ccc(Cl)cc3)c3ccc(OC)cc23)CC1)NC(=O)c1ccccc1 (configuration not stated) [Proglumetacin maleate] | > 46
CCCN(CCC)C(=O)[C@@H](CCC(=O)O)NC(=O)c1ccccc1 [Proglumide] | > 46

Compound | IC50 of cell viability [µM]
CN(C)CCCN1c2ccccc2Sc2ccccc21 [Promazine hydrochloride] | > 46
N=C(N)c1ccc(OCCCOc2ccc(C(=N)N)cc2)cc1 [Propamidine] | > 46
CCCOC(=O)Cc1ccc(OCC(=O)N(CC)CC)c(OC)c1 [Propanidid] | > 46
CCCOc1ccc(C(=O)OCCN(CC)CC)cc1N [Proparacaine hydrochloride] | > 46
CCC(Oc1ccccc1)C(=O)NC1C(=O)N2C1SC(C)(C)C2C(=O)[O-] (configuration not stated) [Propicillin] | > 46
CCC(=O)[O-] [Propionic acid] | > 46
CCCOc1cc(N)ccc1C(=O)OCCN(CC)CC [Propoxycaine hydrochloride] | > 46
CCCOC(=O)c1cc(O)c(O)c(O)c1 [Propyl gallate] | > 46
CCCOC(=O)c1ccc(O)cc1 [Propyl-4-hydroxybenzoate] | > 46
CNC(C)CC1CCCCC1 (configuration not stated) [Propylhexadrine] | > 46
CCCOC(=O)c1ccc(O)cc1 [Propylparaben] | > 46
C[C@@H]1O[C@@H](O[C@H]\2CC[C@]\3(C)[C@@H]4CC[C@]5(C)[C@@H](CC[C@@]5(O)[C@H]4CCC3=C2)C/6=C/OC(=O)/C=C6)[C@H](O)[C@H](O)[C@@H]1O [Proscillaridin A] | > 46
C[N+]1(C)[C@@H]2C[C@H](OC(=O)[C@@H](CO)c3ccccc3)C[C@@H]1[C@H]1O[C@H]12 [Proscomide] | > 46
CNCCCC1C2=C(C=CC=C2)\C=C/C3=C1C=CC=C3 [Protriptyline hydrochloride] | > 46
CC[C@H](c1ccccc1)c1noc(CCN(CC)CC)n1 [Proxazole citrate] | > 46
C[C@H](O)Cn1cnc2c1c(=O)n(C)c(=O)n2C [Proxyphylline] | > 46
Cc1oc(=O)oc1CN1CCN(c2cc3c(cc2F)c(=O)c(C(=O)O)c2n3C(C)S2)CC1 (configuration not stated) [Prulifloxacin] | > 46
CN(C)CCc1c[nH]c2cccc(O)c12 [Psilocin] | > 46
CN(C)CCc1c[nH]c2cccc(OP(=O)(O)O)c12 [Psilocybin] | > 46
CN1CCCN=C1/C=C\c1cccs1.O=C(O)[C@@H](O)[C@@H](O)C(=O)O [Pyrantel tartrate] | > 46
NC(=O)c1cnccn1 [Pyrazinamide] | > 46
Cc1ncc(CO)c(CN)c1O [Pyridoxamine dichlorohydrate] | > 46
Cc1ncc(CO)c(CO)c1O [Pyridoxine] | > 46

Compound | IC50 of cell viability [µM]
CCOC(=O)C(CCc1ccccc1)NC(C)C(=O)N1Cc2ccccc2CC1C(=O)O.Cl (configuration not stated) [QUINAPRIL HYDROCHLORIDE] | > 46
C=CC1CN2CCC1CC2[C@@H](O)c1ccnc2ccc(OC)cc12 (some centres not stated) [QUINIDINE GLUCONATE] | > 46
C=C[C@H]1CN2CCC1C[C@H]2[C@H](O)c1ccnc2ccc(OC)cc12 (some centres not stated) [QUININE ASCORBATE] | > 46
C=CC1C[N@]2CCC1CC2C(OC(=O)OCC)c1ccnc2ccc(OC)cc12 (some centres not stated) [QUININE ETHYL CARBONATE] | > 46
c1ccc2nc(N3CCNCC3)ccc2c1 [QUIPAZINE] | > 46
C[C@@H](C(=O)O)c1ccc(C2CCCCC2)c2ccccc12 [Quadrisol] | > 46
CCc1ncnc2cc(OC)c(OC)cc12 [Quazodine] | > 46
O.O.OC1=CC2=C(C(=C1)O)C(=O)\C(=C(/O2)C3=CC(=C(O)C=C3)O)O [Quercetine dihydrate] | > 46
OC(c1ccccc1)(c1ccccc1)C1CN2CCC1CC2 (configuration not stated) [Quifenadine] | > 46
CCN(CC)CCC[C@H](C)Nc1c2ccc(Cl)cc2nc2ccc(OC)cc12.Cl.Cl.O.O [Quinacrine dihydrochloride dihydrate] | > 46
[O-][n+]1cc[n+]([O-])c2ccccc21 [Quindoxin] | > 46
CC[C@H]1NC(=O)c2cc([S+](N)(=O)[O-])c(Cl)cc2N1 [Quinethazone] | > 46
C=C[C@H]1CN2CCC1C[C@H]2[C@H](O)c1ccnc2ccc(OC)cc12.C=C[C@H]1CN2CCC1C[C@H]2[C@H](O)c1ccnc2ccc(OC)cc12.O.O.O=[S+]([O-])(O)O (some centres not stated) [Quinine hemisulfate salt monohydrate] | > 46
CCCN1CCC[C@H](c2cccc(O)c2)C1.Cl [R(+)-3PPP hydrochloride] | > 46
CCN(CC)C(=O)N[C@@H]1C[C@@H]2c3cccc4[nH]cc(c34)C[C@H]2N(C)C1 [R(+)-TERGURIDE] | > 46
COc1ccc(CCNC[C@@H](O)c2ccc(O)cc2)cc1OC [R(-)-Denopamine] | > 46
CC(C)NC[C@@H](O)COc1ccc(CC(N)=O)cc1 [R-(+)-ATENOLOL] | > 46
CC(C)NC[C@@H](O)COc1cccc2ccccc12 [R-(+)-PROPRANOLOL] | > 46
C=CCC1(C(C)CCC)C(=O)NC(=O)NC1=O (stereo not drawn) [R-(+)-Secobarbital] | > 46
COCCCOc1ccnc(C[S+]([O-])c2nc3ccccc3[n-]2)c1C (configuration not stated) [RABEPRAZOLE SODIUM] | > 46
CC(CCc1ccc(O)cc1)NCC(O)c1ccc(O)cc1 (configuration not stated) [RACTOPAMINE HYDROCHLORIDE] | > 46
